Reference: patent US20060223846A1, “Aza-bridged-bicyclic amino acid derivatives as alpha4 integrin antagonists” (priority 2005, published 2006)

Test system: α4β7 integrin-positive cells
Test: Intraperitoneal Delayed Type Hypersensitivity (IP-DTH) Response, ovalbumin challenge
Format: in vivo
Details: 80 mg/kg, sc, qd × 2; mice, 48 hours after antigen challenge
Excerpt: Intraperitoneal Delayed Type Hypersensitivity (IP-DTH) Response. A Method for Analyzing Effects of Integrin Antagonists In Vivo
Background: Integrin antagonists are meant to interfere with the binding or adhesion of immune cells, such as lymphocytes, monocytes and eosinophils that bear integrin receptors to counter-receptors that exist on endothelial cells in the vasculature. Among those integrin-bearing cells, cells that are positive for α4β7 integrin are found in the mesenteric system and in the gut, and would comprise many of the cells recruited to a peritoneal antigen challenge. One can maximize the number of α4β7 integrin-positive cells recruited by inducing an intraperitoneal delayed type hypersensitivity response to antigen that will recruite antigen-responsive cells from the mesenteric lymph nodes. An inhibitor of α4β7 integrin should prevent the recruitment of these cells to the site of antigen challenge. […]
The cells were stained with fluorochrome-coupled antibody to α4β7 integrin or a primary antibody to α4β7 integrin followed by a secondary fluorochrome-coupled antibody. […] The cells were then transferred to test tubes and maintained at 4° C. until analyzed by flow cytometry to determine numbers of α4β7-postive cells. […]

Row | Structure (SMILES) | Percent Decrease in recruited α4β7+ cells [%]
1 | CC(C)(C)CCN1C2CCC(CC2)[C@H]1C(=O)N[C@@H](Cc1ccc(NC(=O)c2c(Cl)cncc2Cl)cc1)C(=O)O [Cpd 16, 3-{4-[(3,5-dichloro-pyridine-4-carbonyl)-amino]-phenyl}-2-{[2-(3,3-dimethyl-butyl)-2-aza-bicyclo[2.2.2]octane-3-carbonyl]-amino}-propionic acid] | 56
2 | O=C(Nc1ccc(CC(NC(=O)C2C3CCC(CC3)N2C(=O)Cc2ccsc2)C(=O)O)cc1)c1c(Cl)cncc1Cl (centres unmarked) [Cpd 3] | 20
